Experimental data: EP0908457B1, “3-(1,2-benzisothiazol- and isoxazol-5-Y1)-2,4(1H,3H)-pyrimidinedione or thione and 3-(1,2-benzisothiazol- and isoxazol-5-y1)-4(3H)-pyrimidinone or thione herbicidal agents” (BASF AKTIENGESELLSCHAFT, priority 1997, dated 1999)

Key:
[1] = tested on: Cyperus serotinus, Rottb.; assay: Preemergence weed control under flooded paddy conditions, CYPSE (Flatsedge); format: in vivo; also: meaning of each grade not given here
[2] = tested on: Echinochloa oryzoides (Ard.) Fritsch.; assay: Preemergence weed control under flooded paddy conditions, ECHORC (Watergrass (Calif.)); format: in vivo; details: flooded paddy; also: meaning of each grade not given here
[3] = tested on: Monochoria vaginalis, Presl.; assay: Preemergence weed control under flooded paddy conditions, MOOVA (Monochoria); format: in vivo; details: flooded paddy; also: meaning of each grade not given here
[4] = tested on: Cyperus iria; assay: Preemergence weed control under flooded paddy conditions, CYPIR (Rice Flatsedge); format: in vivo; details: flooded paddy; also: meaning of each grade not given here
[5] = tested on: Sagittaria pygmaea, L.; assay: Preemergence weed control under flooded paddy conditions, SAGPY (Arrowhead (Pygmaea)); format: in vivo; details: flooded paddy; also: meaning of each grade not given here
[6] = tested on: Oryza sativa, (L.) Tebonnet; assay: Rice tolerance to post-transplant applications under flooded paddy conditions (Example 187), ORYSAT (Rice, Tebonnet); as to herbicidal effect rating ORYSAT: meaning of each grade not given here
[7] = Rate 0.0320 kg/ha, preemergence, rated 3-4 weeks after treatment
[8] = Rate 0.0620 kg/ha, preemergence, rated 3-4 weeks after treatment
[9] = Rate 0.1250 kg/ha, preemergence, rated 3-4 weeks after treatment
[10] = Rate 0.2500 kg/ha, preemergence, rated 3-4 weeks after treatment
[11] = Rate 0.5000 kg/ha, preemergence, rated 3-4 weeks after treatment
[12] = Rate 0.0320 kg/ha, rated 3-4 weeks after treatment
[13] = Rate 0.0620 kg/ha, rated 3-4 weeks after treatment
[14] = Rate 0.1250 kg/ha, rated 3-4 weeks after treatment
[15] = Rate 0.2500 kg/ha, rated 3-4 weeks after treatment
[16] = Rate 0.5000 kg/ha, rated 3-4 weeks after treatment
[17] = 0.0313 kg/ha, preemergence weeds, rated three to four weeks after treatment
[18] = 0.0625 kg/ha, preemergence weeds, rated three to four weeks after treatment
[19] = 0.1250 kg/ha, preemergence weeds, rated three to four weeks after treatment
[20] = 0.2500 kg/ha, preemergence weeds, rated three to four weeks after treatment
[21] = Rate 0.0320 kg/ha, preemergence, rated three to four weeks after treatment
[22] = Rate 0.0620 kg/ha, preemergence, rated three to four weeks after treatment
[23] = Rate 0.1250 kg/ha, preemergence, rated three to four weeks after treatment
[24] = Rate 0.2500 kg/ha, preemergence, rated three to four weeks after treatment

CC(C)S(=O)(=O)NC(=O)COc1ccccc1-c1nsc2ccc(-n3c(=O)cc(C(F)(F)F)n(C)c3=O)cc12 [Example 555, Acetamide, 2-{o-{5-[3,6-dihydro-3-methyl-2,6-dioxo-4-(trifluoromethyl)-1(2H)-pyrimidinyl)-1,2-benzisothiazol-3-yl}phenoxy}-N-(isopropylsulfonyl)-]
herbicidal effect rating, CYPSE [1, 7]: 4.0 | herbicidal effect rating, CYPSE [1, 8]: 6.0 | herbicidal effect rating, CYPSE [1, 9]: 8.0 | herbicidal effect rating, CYPSE [1, 10]: 8.0 | herbicidal effect rating, CYPSE [1, 11]: 9.0 | herbicidal effect rating, ECHORC [2, 7]: 1.6 | herbicidal effect rating, ECHORC [2, 8]: 2.3 | herbicidal effect rating, ECHORC [2, 9]: 4.6 | herbicidal effect rating, ECHORC [2, 10]: 9.0 | herbicidal effect rating, ECHORC [2, 11]: 9.0 | herbicidal effect rating, MOOVA [3, 7]: 9.0 | herbicidal effect rating, MOOVA [3, 8]: 9.0 | herbicidal effect rating, MOOVA [3, 9]: 9.0 | herbicidal effect rating, MOOVA [3, 10]: 9.0 | herbicidal effect rating, MOOVA [3, 11]: 9.0 | herbicidal effect rating, CYPIR [4, 7]: 4.0 | herbicidal effect rating, CYPIR [4, 8]: 6.0 | herbicidal effect rating, CYPIR [4, 9]: 9.0 | herbicidal effect rating, CYPIR [4, 10]: 9.0 | herbicidal effect rating, CYPIR [4, 11]: 3.0 | herbicidal effect rating, SAGPY [5, 7]: 0.0 | herbicidal effect rating, SAGPY [5, 8]: 0.0 | herbicidal effect rating, SAGPY [5, 9]: 2.0 | herbicidal effect rating, SAGPY [5, 10]: 7.0 | herbicidal effect rating, SAGPY [5, 11]: 0.0 | herbicidal effect rating ORYSAT [6, 12]: 6.0 | herbicidal effect rating ORYSAT [6, 13]: 6.0 | herbicidal effect rating ORYSAT [6, 14]: 8.0 | herbicidal effect rating ORYSAT [6, 15]: 9.0 | herbicidal effect rating ORYSAT [6, 16]: 3.0

C=CS(=O)(=O)NC(=O)COc1ccccc1-c1nsc2ccc(-n3c(=O)cc(C(F)(F)F)n(C)c3=O)cc12 [Example 557, Acetamide, 2-{o-{5-[3,6-dihydro-3-methyl-2,6-dioxo-4-(trifluoromethyl)-1(2H)-pyrimidinyl]-1,2-benzisothiazol-3-yl}phenoxy}-N-(vinylsulfonyl)-]
herbicidal effect rating, CYPSE [1, 7]: 0.0 | herbicidal effect rating, CYPSE [1, 9]: 6.0 | herbicidal effect rating, CYPSE [1, 10]: 9.0 | herbicidal effect rating, CYPSE [1, 11]: 5.0 | herbicidal effect rating, ECHORC [2, 7]: 4.3 | herbicidal effect rating, ECHORC [2, 8]: 5.1 | herbicidal effect rating, ECHORC [2, 9]: 6.3 | herbicidal effect rating, ECHORC [2, 10]: 9.0 | herbicidal effect rating, ECHORC [2, 11]: 9.0 | herbicidal effect rating, MOOVA [3, 7]: 9.0 | herbicidal effect rating, MOOVA [3, 8]: 9.0 | herbicidal effect rating, MOOVA [3, 9]: 9.0 | herbicidal effect rating, MOOVA [3, 10]: 9.0 | herbicidal effect rating, MOOVA [3, 11]: 9.0 | herbicidal effect rating, CYPIR [4, 7]: 4.0 | herbicidal effect rating, CYPIR [4, 8]: 8.0 | herbicidal effect rating, CYPIR [4, 9]: 9.0 | herbicidal effect rating, CYPIR [4, 10]: 9.0 | herbicidal effect rating, CYPIR [4, 11]: 9.0 | herbicidal effect rating, SAGPY [5, 7]: 0.0 | herbicidal effect rating, SAGPY [5, 8]: 0.0 | herbicidal effect rating, SAGPY [5, 9]: 2.0 | herbicidal effect rating, SAGPY [5, 10]: 4.0 | herbicidal effect rating, SAGPY [5, 11]: 4.0 | herbicidal effect rating ORYSAT [6, 12]: 6.0 | herbicidal effect rating ORYSAT [6, 13]: 8.0 | herbicidal effect rating ORYSAT [6, 14]: 8.0 | herbicidal effect rating ORYSAT [6, 15]: 9.0 | herbicidal effect rating ORYSAT [6, 16]: 9.0

CCCS(=O)(=O)NC(=O)COc1ccccc1-c1nsc2ccc(-n3c(=O)cc(C(F)(F)F)n(C)c3=O)cc12 [Example 556, Acetamide, 2-{o-{5-[3,6-dihydro-3-methyl-2,6-dioxo-4-(trifluoromethyl)-1(2H)-pyrimidinyl]-1,2-benzisothiazol-3-yl}phenoxy}-N-(propylsulfonyl)-]
herbicidal effect rating, CYPSE [1, 7]: 2.0 | herbicidal effect rating, CYPSE [1, 8]: 2.0 | herbicidal effect rating, CYPSE [1, 9]: 9.0 | herbicidal effect rating, CYPSE [1, 10]: 9.0 | herbicidal effect rating, CYPSE [1, 11]: 0.0 | herbicidal effect rating, ECHORC [2, 7]: 2.9 | herbicidal effect rating, ECHORC [2, 8]: 3.6 | herbicidal effect rating, ECHORC [2, 9]: 4.4 | herbicidal effect rating, ECHORC [2, 10]: 9.0 | herbicidal effect rating, ECHORC [2, 11]: 9.0 | herbicidal effect rating, MOOVA [3, 7]: 9.0 | herbicidal effect rating, MOOVA [3, 8]: 9.0 | herbicidal effect rating, MOOVA [3, 9]: 9.0 | herbicidal effect rating, MOOVA [3, 10]: 9.0 | herbicidal effect rating, MOOVA [3, 11]: 9.0 | herbicidal effect rating, CYPIR [4, 7]: 0.0 | herbicidal effect rating, CYPIR [4, 8]: 2.0 | herbicidal effect rating, CYPIR [4, 9]: 7.0 | herbicidal effect rating, CYPIR [4, 10]: 9.0 | herbicidal effect rating, CYPIR [4, 11]: 3.0 | herbicidal effect rating, SAGPY [5, 7]: 0.0 | herbicidal effect rating, SAGPY [5, 8]: 0.0 | herbicidal effect rating, SAGPY [5, 9]: 6.0 | herbicidal effect rating, SAGPY [5, 10]: 4.0 | herbicidal effect rating, SAGPY [5, 11]: 3.0 | herbicidal effect rating ORYSAT [6, 12]: 4.0 | herbicidal effect rating ORYSAT [6, 13]: 7.0 | herbicidal effect rating ORYSAT [6, 14]: 8.0 | herbicidal effect rating ORYSAT [6, 15]: 9.0 | herbicidal effect rating ORYSAT [6, 16]: 5.0

CC(C)=CCOC(=O)COc1ccc(C)cc1-c1nsc2ccc(-n3c(=O)cc(C(F)(F)F)n(C)c3=O)cc12 [Example 187, 3-Methyl-2-butenyl {{2-{5-[3,6-dihydro-3-methyl-2,6-dioxo-4-(trifluoromethyl)-1(2H)-pyrimidinyl]-1,2-benzisothiazol-3-yl}-p-tolyl}oxy}acetate]
herbicidal effect rating, CYPSE [1, 17]: 0.0 | herbicidal effect rating, CYPSE [1, 18]: 0.0 | herbicidal effect rating, CYPSE [1, 19]: 0.0 | herbicidal effect rating, CYPSE [1, 20]: 0.0 | herbicidal effect rating, ECHORC [2, 17]: 0.0 | herbicidal effect rating, ECHORC [2, 18]: 2.0 | herbicidal effect rating, ECHORC [2, 19]: 6.0 | herbicidal effect rating, ECHORC [2, 20]: 9.0 | herbicidal effect rating, MOOVA [3, 17]: 8.0 | herbicidal effect rating, MOOVA [3, 18]: 9.0 | herbicidal effect rating, MOOVA [3, 19]: 9.0 | herbicidal effect rating, MOOVA [3, 20]: 9.0 | herbicidal effect rating, CYPIR [4, 17]: 0.0 | herbicidal effect rating, CYPIR [4, 18]: 0.0 | herbicidal effect rating, CYPIR [4, 19]: 2.0 | herbicidal effect rating, CYPIR [4, 20]: 4.0 | herbicidal effect rating, SAGPY [5, 17]: 0.0 | herbicidal effect rating, SAGPY [5, 18]: 0.0 | herbicidal effect rating, SAGPY [5, 19]: 0.0 | herbicidal effect rating, SAGPY [5, 20]: 0.0 | herbicidal effect rating, ORYSAT (rice tolerance) ([6]; 0.0313 kg/ha, rated three to four weeks after treatment): 2.0 | herbicidal effect rating, ORYSAT (rice tolerance) ([6]; 0.0625 kg/ha, rated three to four weeks after treatment): 3.0 | herbicidal effect rating, ORYSAT (rice tolerance) ([6]; 0.1250 kg/ha, rated three to four weeks after treatment): 3.0 | herbicidal effect rating, ORYSAT (rice tolerance) ([6]; 0.2500 kg/ha, rated three to four weeks after treatment): 6.0

Cn1c(C(F)(F)F)cc(=O)n(-c2ccc3snc(C#N)c3c2)c1=O [Example 373, 1,2-Benzisothiazole-3-carbonitrile, 5-[3,6-dihydro-3-methyl-2,6-dioxo-4-(trifluoromethyl)-1(2H)-pyrimidinyl]-]
herbicidal effect rating, CYPSE [1, 21]: 2.0 | herbicidal effect rating, CYPSE [1, 22]: 5.0 | herbicidal effect rating, CYPSE [1, 23]: 7.5 | herbicidal effect rating, CYPSE [1, 24]: 8.0 | herbicidal effect rating, ECHORC [2, 21]: 6.5 | herbicidal effect rating, ECHORC [2, 22]: 9.0 | herbicidal effect rating, ECHORC [2, 23]: 9.0 | herbicidal effect rating, ECHORC [2, 24]: 9.0 | herbicidal effect rating, MOOVA [3, 21]: 9.0 | herbicidal effect rating, MOOVA [3, 22]: 9.0 | herbicidal effect rating, MOOVA [3, 23]: 9.0 | herbicidal effect rating, MOOVA [3, 24]: 9.0 | herbicidal effect rating, CYPIR [4, 21]: 6.5 | herbicidal effect rating, CYPIR [4, 22]: 9.0 | herbicidal effect rating, CYPIR [4, 23]: 9.0 | herbicidal effect rating, CYPIR [4, 24]: 9.0 | herbicidal effect rating, SAGPY [5, 21]: 5.5 | herbicidal effect rating, SAGPY [5, 22]: 8.5 | herbicidal effect rating, SAGPY [5, 23]: 9.0 | herbicidal effect rating, SAGPY [5, 24]: 9.0 | herbicidal effect rating ORYSAT ([6]; Rate 0.0320 kg/ha, rated three to four weeks after treatment): 5.5 | herbicidal effect rating ORYSAT ([6]; Rate 0.0620 kg/ha, rated three to four weeks after treatment): 6.5 | herbicidal effect rating ORYSAT ([6]; Rate 0.1250 kg/ha, rated three to four weeks after treatment): 6.0 | herbicidal effect rating ORYSAT ([6]; Rate 0.2500 kg/ha, rated three to four weeks after treatment): 8.0
